Active and inactive are the calls of the source. The rule behind the calls is not given here.
Columns and labels:
Assay type in all cases: functional, cell-based
K562 = experiment: Cytotoxicity against human K562 cells after 48 hrs by MTT assay; settings: K562, 48 h
MDA-MB-231 = experiment: Cytotoxicity against human MDA-MB-231 cells after 48 hrs by MTT assay
BT-474 = experiment: Cytotoxicity against human BT474 cells after 48 hrs by MTT assay
MCF7 = experiment: Cytotoxicity against human MCF7 cells after 48 hrs by MTT assay; settings: MCF7, 48 h

Compound	IC50 (K562) [nM]	Activity (MDA-MB-231)	Activity (BT-474)	IC50 (MCF7) [nM]
Oc1ccc(CCc2cc(O)cc(O)c2)cc1 [DIHYDRORESVERATROL]	< 1000	inactive	inactive	–
O=c1c(-c2ccc(O)cc2)coc2cc(O)cc(O)c12 [GENISTEIN]	–	–	–	1000
